# Assay results from ChEMBL document CHEMBL1135696, “Isotopic effect study of propofol deuteration on the metabolism, activity, and toxicity of the anesthetic” (J Med Chem, 2002).
# What was measured:
# [1] = Lethal Dose in mice (in vivo); settings: mouse
# [2] = Kinetic parameter, Km on human hepatic microsomes.; settings: liver microsomes
# in vivo = settings: mouse, 24 mg/kg
# Description: Therapeutic index (24 mg/kg) in mice (in vivo)
SMILES,LD50 [1],Km [2],selectivity ratio (in vivo)
CC(C)c1cccc(C(C)C)c1O [PROPOFOL],32 mg/kg,12.3 µM,2.1
[2H]c1c([2H])c(C(C)C)c(O)c(C(C)C)c1[2H] [TRIDEUTERATED PROPOFOL],35 mg/kg,16.4 µM,2.7
[2H]c1cc(C(C)C)c(O)c(C(C)C)c1 [MONODEUTERATED PROPOFOL],39 mg/kg,16.7 µM,3
